Laboratory results published in ChEMBL document CHEMBL1795328, “Synthesis of novel triplet drugs with 1,3,5-trioxazatriquinane skeletons and their pharmacologies. 1: Synthesis of triplet drugs with morphinan skeletons” (Bioorg Med Chem Lett, 2011).

Experiments:
[1] = Displacement of [3H]-NTI from delta opioid receptor in guinea pig forebrain homogenates; type: tissue-based, Cavia porcellus, Brain
Mu-type opioid receptor = Mu-type opioid receptor (Cavia porcellus, UniProt P97266); test: Displacement of [3H]-DAMGO from mu opioid receptor in guinea pig forebrain homogenates; type: tissue-based, Brain
[2] = target: Kappa-type opioid receptor (Cavia porcellus, UniProt P41144); test: Displacement of [3H]-U69593 from kappa opioid receptor in guinea pig cerebellum homogenates; type: tissue-based
Cavia porcellus = species: Cavia porcellus; test: Selectivity ratio of Ki for delta opioid receptor in guinea pig forebrain homogenates to Ki for mu opioid receptor in guinea pig forebrain homogenates; type: tissue-based
Mus musculus [3] = test: Antinociceptive activity in sc dosed mouse by acetic acid writhing test; type: functional
Mus musculus [4] = test: Ratio of morphine ED50 to compound ED50 for antinociceptive activity in sc dosed mouse by acetic acid writhing test; type: functional

Chain of Mu-type opioid receptor (P97266 whole entry): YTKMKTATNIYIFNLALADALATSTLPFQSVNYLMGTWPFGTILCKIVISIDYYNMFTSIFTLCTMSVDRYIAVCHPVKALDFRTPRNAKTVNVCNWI
Chain of Kappa-type opioid receptor (P41144 whole entry): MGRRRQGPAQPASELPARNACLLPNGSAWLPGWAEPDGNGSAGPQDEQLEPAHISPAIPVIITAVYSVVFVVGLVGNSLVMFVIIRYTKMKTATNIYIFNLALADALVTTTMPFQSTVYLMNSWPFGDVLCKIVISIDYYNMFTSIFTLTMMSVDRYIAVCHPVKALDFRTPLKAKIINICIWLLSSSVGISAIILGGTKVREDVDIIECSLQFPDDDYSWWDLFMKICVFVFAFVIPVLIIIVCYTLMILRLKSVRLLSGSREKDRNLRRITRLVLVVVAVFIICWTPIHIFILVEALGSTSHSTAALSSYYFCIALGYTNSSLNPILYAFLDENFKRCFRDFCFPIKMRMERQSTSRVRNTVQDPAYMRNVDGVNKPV

## CN1CC[C@]23c4c5ccc(O)c4O[C@H]2[C@]2(CC[C@@]3(O)[C@H]1C5)O[C@@H]1N3[C@H]2O[C@]2(CC[C@@]4(O)[C@H]5Cc6ccc(O)c7c6[C@@]4(CCN5CC4CC4)[C@H]2O7)[C@@H]3O[C@]12CC[C@@]1(O)[C@H]3Cc4ccc(O)c5c4[C@@]1(CCN3CC1CC1)[C@H]2O5
[1]
  Ki: 24.6 nM
Mu-type opioid receptor
  Ki: 3.98 nM
[2]
  Ki: 10.1 nM
Cavia porcellus
  Ratio Ki: 6.2

## CN1CC[C@]23c4c5ccc(O)c4O[C@H]2[C@]2(CC[C@@]3(O)[C@H]1C5)O[C@@H]1N3[C@H]2O[C@]2(CC[C@@]4(O)[C@H]5Cc6ccc(O)c7c6[C@@]4(CCN5CC4CC4)[C@H]2O7)[C@@H]3O[C@]12CC[C@@]1(O)[C@H]3Cc4ccc(O)c5c4[C@@]1(CCN3C)[C@H]2O5
[1]
  Ki: 23.5 nM
Mu-type opioid receptor
  Ki: 1.85 nM
[2]
  Ki: 10.9 nM
Cavia porcellus
  Ratio Ki: 12.7

## Oc1ccc2c3c1O[C@H]1[C@]4(CC[C@@]5(O)[C@@H](C2)N(CC2CC2)CC[C@]315)O[C@@H]1N2[C@H]4O[C@]3(CC[C@@]4(O)[C@H]5Cc6ccc(O)c7c6[C@@]4(CCN5CC4CC4)[C@H]3O7)[C@@H]2O[C@]12CC[C@@]1(O)[C@H]3Cc4ccc(O)c5c4[C@@]1(CCN3CC1CC1)[C@H]2O5
[1]
  Ki: 122 nM
Mu-type opioid receptor
  Ki: 22.2 nM
[2]
  Ki: 22.1 nM
Cavia porcellus
  Ratio Ki: 5.5

## CN1CC[C@]23c4c5ccc(O)c4O[C@H]2[C@]2(CC[C@@]3(O)[C@H]1C5)O[C@@H]1N3[C@H]2O[C@]2(CC[C@@]4(O)[C@H]5Cc6ccc(O)c7c6[C@@]4(CCN5C)[C@H]2O7)[C@@H]3O[C@]12CC[C@@]1(O)[C@H]3Cc4ccc(O)c5c4[C@@]1(CCN3C)[C@H]2O5
Mus musculus [3]
  Activity: Dose-dependent effect
  ED50: 0.037 mg/kg
[1]
  Ki: 38.6 nM
Mu-type opioid receptor
  Ki: 1.05 nM
[2]
  Ki: 16.1 nM
Cavia porcellus
  Ratio Ki: 36.8
Mus musculus [4]
  Ratio ED50: 16

## O=C1CC[C@@]2(O)[C@H]3Cc4ccc(O)c5c4[C@@]2(CCN3CC2CC2)[C@H]1O5 [NALTREXONE]
[1]
  Ki: 20.7 nM

## Oc1ccc2c3c1O[C@H]1[C@]4(CC[C@H]5[C@@H](C2)N(CC2CC2)CC[C@@]351)O[C@@H]1N2[C@H]4O[C@]3(CC[C@H]4[C@H]5Cc6ccc(O)c7c6[C@@]4(CCN5CC4CC4)[C@H]3O7)[C@@H]2O[C@]12CC[C@H]1[C@H]3Cc4ccc(O)c5c4[C@@]1(CCN3CC1CC1)[C@H]2O5
[1]
  Ki: 53.7 nM
Mu-type opioid receptor
  Ki: 22.3 nM
[2]
  Ki: 43.2 nM
Cavia porcellus
  Ratio Ki: 2.4
